The source made the active and inactive calls. The rule behind the calls is not given here.
Experiments:
[1] = tested on: PC-3; experiment: Inhibition of PIP5K1alpha protein expression in human PC3 cells assessed as reduction in AKT phosphorylation at Ser473 residues at 100 nM incubated for 48 hrs by immunoblot analysis relative to control; format: functional, cell-based
[2] = tested on: PC-3; experiment: Induction of apoptosis in human PC3 cells assessed as viable cells at 100 nM incubated for 48 hrs by Annexin-/7-AAD staining based FACS analysis (reference value: 94.31%); format: functional; details: PC-3, 48 h, read-out: Activity
[3] = tested on: PC-3; experiment: Induction of apoptosis in human PC3 cells assessed as necrotic cells at 100 nM incubated for 48 hrs by Annexin-/7-AAD staining based FACS analysis (reference value: 0.32%); format: functional
[4] = tested on: LNCaP; experiment: Inhibition of PIP5K1alpha protein expression in human LNCAP cells assessed as reduction in AKT phosphorylation at Ser473 residues at 50 nM incubated for 48 hrs by immunoblot analysis relative to control; format: functional, cell-based
[5] = tested on: PC-3; experiment: Induction of morphological changes in human PC3 cells assessed as reduction in cell size at 100 nM incubated for 48 hrs by live cell imaging system based assay; format: functional
[6] = tested on: PC-3; experiment: Induction of morphological changes in human PC3 cells assessed as changes in morphology at 100 nM incubated for 48 hrs by live cell imaging system based assay; format: functional
[7] = Toxicity in mouse xenografted with human PC3 cells at 10 mg/kg dosed every second day starting from day 0 and ending on day 20 relative to control; format: organism-based; details: in vivo
[8] = tested on: PC-3; experiment: Induction of apoptosis in human PC3 cells assessed as early apoptotic cells at 100 nM incubated for 48 hrs by Annexin-/7-AAD staining based FACS analysis (reference value: 2.53%); format: functional
[9] = tested on: LNCaP; experiment: Effect on CREB phosphorylation in human LNCAP cells at 50 nM incubated for 48 hrs by immunoblot analysis; format: functional, cell-based
[10] = tested on: PC-3; experiment: Antitumor activity against human PC3 cells xenografted in mouse assessed as reduction in volume at 10 mg/kg dosed every second day starting from day 0 and ending on day 20 relative to control; format: functional, organism-based
[11] = tested on: LNCaP; experiment: Inhibition of AR protein expression in human LNCAP cells at 50 nM incubated for 48 hrs by immunoblot analysis; format: functional, cell-based
[12] = tested on: PC-3; experiment: Inhibition of PIP5K1alpha protein expression in human PC3 cells at 50 nM incubated for 48 hrs by immunoblot analysis; format: functional, cell-based
[13] = tested on: PC-3; experiment: Inhibition of PIP5K1alpha protein expression in human PC3 cells assessed as reduction in FAK phosphorylation incubated for 48 hrs by immunoblot analysis relative to control; format: functional, cell-based
[14] = tested on: PC-3; experiment: Induction of apoptosis in human PC3 cells assessed as late apoptotic cells at 100 nM incubated for 48 hrs by Annexin-/7-AAD staining based FACS analysis (reference value: 2.83%); format: functional
[15] = tested on: LNCaP; experiment: Inhibition of PSA protein expression in human LNCAP cells at 50 nM incubated for 48 hrs by immunoblot analysis; format: functional, cell-based
[16] = tested on: PC-3; experiment: Inhibition of PIP5K1alpha protein expression in human PC3 cells assessed as reduction in AKT phosphorylation at Ser473 residues at 50 uM incubated for 48 hrs by immunoblot analysis relative to control; format: functional, cell-based
[17] = tested on: LNCaP; experiment: Inhibition of PIP5K1alpha protein expression in human LNCAP cells assessed as reduction in AKT phosphorylation at Ser473 residues at 20 uM incubated for 48 hrs by immunoblot analysis relative to control; format: functional
[18] = tested on: LNCaP; experiment: Effect on CREB phosphorylation in human LNCAP cells at 20 uM incubated for 48 hrs by immunoblot analysis; format: functional, cell-based

Row | SMILES | inhibition [1] | viability at 0.1 µM [2] [%] | Activity [3] [%] | inhibition [4] | Activity [5] | Activity [6] | Activity [7] | Activity [8] [%] | Activity [9] | Activity [10] | inhibition [11] | inhibition [12] | inhibition [13] | Activity [14] [%] | inhibition [15] | inhibition [16] | inhibition [17] | Activity [18]
1 | CC(=O)O[C@@]12CO[C@@H]1C[C@H](O)[C@@]1(C)C(=O)[C@H](O)C3=C(C)[C@@H](OC(=O)[C@H](O)[C@@H](NC(=O)OC(C)(C)C)c4ccccc4)C[C@@](O)([C@@H](OC(=O)c4ccccc4)[C@H]21)C3(C)C [DOCETAXEL ANHYDROUS] | inactive | 89.8 | 1.15 | inactive | Active | Active | Toxic | 2.73 | inactive | Active | inactive | inactive | inactive | 6.36 | inactive |  |  | 
2 | COc1cc([C@@H]2c3cc4c(cc3[C@@H](O[C@@H]3O[C@@H]5CO[C@@H](C)O[C@H]5[C@H](O)[C@H]3O)[C@H]3COC(=O)[C@H]23)OCO4)cc(OC)c1O |  |  |  |  |  |  |  |  |  |  |  |  |  |  |  | inactive | inactive | inactive

Source: ChEMBL document CHEMBL4419175, “Compositions for treatment, diagnosis and prognosis of diseases” (2016)
